Ends that are not written are not given here.
Test: Body weight (Example 2)
Type: in vivo, mice
Conditions: various levels of peptide injection or time course of injection postinfection
Description: Female C57BL/6 mice, 4-weeks old, were obtained from Charles River Laboratories Inc. (Wilmington, Del.). Animals were cared for as required by the University of Arizona Committee on Animal Research. After 2 weeks housing in the animal facility in the Arizona Health Science Center (Tucson, Ariz.), they were randomly assigned to one of the following treatments with 8 mice per group for study A: (1) uninfected, normal mice; (2) uninfected, normal mice injected with saline (pyrogen free); (3) LP-BM5-infected mice injected with 5 μg TCR Vβ CDRI peptide; (4) LP-BM5infected mice injected with 25 μg TCR Vβ CDR1 peptide; (5) LP-BM5 infected mice injected with 100 μg TCR Vβ CDR1 peptide; (6) LP-BM5-infected mice injected with 200 μg TCR Vβ CDR1 peptide; (7) LP-BM5-infected mice injected with 500 μg TCR Vβ CDR1 peptide; (8) LP-BM5-infected mice injected with saline and 200 μg Poly AU adjuvant; (9) LP-BM5-infected mice injected with 25 μg TCR Vβ CDR1 peptide and 230 μg Poly AU adjuvant; (10) LP-BM5-infected mice injected with saline and 230 μg Ribi MPL TDM CWS adjuvant; (11) LP-BM5-infected mice injected with 5 μg TCR Vβ CDR1 peptide and 230 μg Ribi MPL TDM CWS adjuvant; and (12) LP-BM5-infected mice injected with 25 μg TCR Vβ CDR1 peptide and 230 Ribi MPL TDM CWS adjuvant.
Administration of peptides (dissolved in saline) and adjuvants were performed 2 weeks after LP-BM5 infection. […]

## CKPISGHNSLFWYRQT [TCR Vβ CDR1 peptide, Cys Lys Pro Ile Ser Gly His Asn Ser Leu Phe Trp Tyr Arg Gln Thr]
  body weight of the mice: not affected

— patent US5911990A, “T-cell receptor peptides and methods for preventing the progression to AIDS in an animal model” (Arizona Board of Regents on Behalf of the University of …, priority 1996, dated 1999)
